Assay results reported in patent publication US11759462B2, “Spirocyclic compounds as tryptophan hydroxylase inhibitors” (priority 2013, dated 2023).
pIC50: −log10 of the molar value. Read-outs that look alike come from different tables or passages of the source.

Experiments:
[1] = target: T1, Recombinant human TPH1 (MBP tagged) (Homo sapiens, UniProt P17752); assay: TPH1 in vitro inhibition assay (kinetic fluorescence); type: biochemical
T1 construct: cloning full length human TPH1 cDNA in to a bacterial pMAL-c5E expression vector; made in house; host or cells: E. coli BL21 (DE3)
T1 sequence (P17752 1-444): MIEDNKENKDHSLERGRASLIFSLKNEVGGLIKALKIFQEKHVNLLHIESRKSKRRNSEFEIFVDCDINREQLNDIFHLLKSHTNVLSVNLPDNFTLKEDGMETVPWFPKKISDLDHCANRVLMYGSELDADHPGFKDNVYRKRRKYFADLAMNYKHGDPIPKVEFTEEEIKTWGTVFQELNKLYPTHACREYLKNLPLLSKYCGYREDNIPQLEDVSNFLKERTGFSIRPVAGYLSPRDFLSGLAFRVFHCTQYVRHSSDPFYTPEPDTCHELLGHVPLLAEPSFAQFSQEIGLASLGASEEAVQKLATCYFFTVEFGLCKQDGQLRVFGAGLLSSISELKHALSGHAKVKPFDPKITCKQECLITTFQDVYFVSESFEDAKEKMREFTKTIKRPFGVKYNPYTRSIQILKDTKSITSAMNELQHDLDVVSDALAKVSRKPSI
Summary of the method: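 Final mix: 15 nM MBP-TPH1, 30 μM Trp, 36 μM 6-methyltetrahydropterin, 25 μM ferrous ammonium sulfate, 50 mM MES pH 7.1, 1% DMSO, room temperature.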

[2] = test system: jejunal mucosal 5-HT in mice (C57 BL6); assay: Intestinal 5-HT depletion assay (Example B, single 150 mg/kg oral dose); type: in vivo, mouse; conditions: one day after oral administration of a single 150 mg/kg dose, P-value class (ANOVA)
Description: The efficacy of the TPH1 inhibitors of the invention was assessed for the ability to decrease intestinal serotonin concentration in mice. Mice (C57 BL6) were administered a single 150 mg/kg dose of test article by oral gavage. Each animal was euthanized by exsanguination under isoflurane anesthesia. Jejunal intestinal mucosa was isolated and homogenized in 300 μL of a buffer containing 0.3M trichloroacetic acid, 0.1M sodium acetate, 10 mM EDTA, 20 mM sodium bisulfate and 50 mM ascorbic acid. Following centrifugation the 5-HT levels in the supernatants were measured by HPLC. The remaining mucosal pellet was solubilized overnight at 37° C. in a 0.1% sodium dodecyl sulfate buffer in 0.1N NaOH followed by determination of protein concentrations using a BCA protein assay (Pierce, Rockford, Ill. 5-HT levels were normalized to protein and data were expressed as mean percent reduction of mucosal 5-HT levels relative to vehicle control SEM (percent 5-HT reduction). All animal studies were carried out with protocols approved by the Institutional Animal Care and Use Committee.
P-values, indicating statistical significance of the data (ANOVA) are provided in the table: * refers to P<0.05, ** refers to P<0.01, *** refers to P<0.005, and refers to P<0.0005.

[3] = read-out: TPH1 Range (TPH1 inhibition IC50)

| Compound | pIC50 [1, 3] | Efficacy (statistical significance of reduction of mucosal 5-HT concentrations relative to vehicle) [2] | pIC50 ([1]; TPH1 Range (TPH1 inhibition IC50)) |
| --- | --- | --- | --- |
| Cc1ccn(-c2cc(-c3ccc4c(C)n[nH]c4c3)ccc2[C@@H](Oc2cc(N3CCC4(CC3)CN[C@H](C(=O)O)C4)nc(N)n2)C(F)(F)F)n1 [Example 1o, (S)-8-(2-amino-6-((R)-2,2,2-trifluoro-1-(4-(3-methyl-1H-indazol-6-yl)-2-(3-methyl-1H-pyrazol-1-yl)phenyl)ethoxy)pyrimidin-4-yl)-2,8-diazaspiro[4.5]decane-3-carboxylic acid] | > 7.30 | ** (** refers to P<0.01) | – |
| Cc1ccc([C@@H](Oc2cc(N3CCC4(CC3)CN[C@H](C(=O)O)C4)nc(N)n2)C(F)(F)F)c(-n2ccc(C)n2)n1 [Example 11, (S)-8-(2-amino-6-((R)-2,2,2-trifluoro-1-(6-methyl-2-(3-methyl-1H-pyrazol-1-yl)pyridin-3-yl)ethoxy)pyrimidin-4-yl)-2,8-diazaspiro[4.5]decane-3-carboxylic acid] | 6.52 to 7.30 | **** (and refers to P<0.0005) | – |
| COc1cccc(-c2ccc([C@@H](Oc3cc(N4CCC5(CC4)CN[C@H](C(=O)O)C5)nc(N)n3)C(F)(F)F)cc2)c1 [Example 55an, (S)-8-(2-amino-6-((R)-2,2,2-trifluoro-1-(3′-methoxy-[1,1′-biphenyl]-4-yl)ethoxy)pyrimidin-4-yl)-2,8-diazaspiro[4.5]decane-3-carboxylic acid] | 6.52 to 7.30 | *** (*** refers to P<0.005) | – |
| Cc1ccn(-c2cc(-c3ccncc3)ccc2[C@@H](Oc2cc(N3CCC4(CC3)CN[C@H](C(=O)O)C4)nc(N)n2)C(F)(F)F)n1 [Example 1g, (S)-8-(2-amino-6-((R)-2,2,2-trifluoro-1-(2-(3-methyl-1H-pyrazol-1-yl)-4-(pyridin-4-yl)phenyl)ethoxy)pyrimidin-4-yl)-2,8-diazaspiro[4.5]decane-3-carboxylic acid] | > 7.30 | *** (*** refers to P<0.005) | – |
| Nc1nc(O[C@H](c2ccc(Cl)cc2-c2ccc(Cl)s2)C(F)(F)F)cc(N2CCC3(CC2)CN[C@H](C(=O)O)C3)n1 [Example 34s, (S)-8-(2-amino-6-((R)-1-(4-chloro-2-(5-chlorothiophen-2-yl)phenyl)-2,2,2-trifluoroethoxy)pyrimidin-4-yl)-2,8-diazaspiro[4.5]decane-3-carboxylic acid] | 6.52 to 7.30 | ** (** refers to P<0.01) | – |
| CCCCc1ccc(-n2ccc(C)n2)c([C@@H](Oc2cc(N3CCC4(CC3)CN[C@H](C(=O)O)C4)nc(N)n2)C(F)(F)F)c1 [Example 22c, (S)-8-(2-amino-6-((R)-1-(5-butyl-2-(3-methyl-1H-pyrazol-1-yl)phenyl)-2,2,2-trifluoroethoxy)pyrimidin-4-yl)-2,8-diazaspiro[4.5]decane-3-carboxylic acid] | > 7.30 | * (* refers to P<0.05) | – |
| Nc1nc(O[C@H](c2ccc(-c3ccc4cnccc4c3)cc2)C(F)(F)F)cc(N2CCC3(CC2)CN[C@H](C(=O)O)C3)n1 [Example 55bd, (S)-8-(2-amino-6-((R)-2,2,2-trifluoro-1-(4-(isoquinolin-6-yl)phenyl)ethoxy)pyrimidin-4-yl)-2,8-diazaspiro[4.5]decane-3-carboxylic acid] | – | *** (*** refers to P<0.005) | > 7.30 |
| CC(=O)NCCc1ccc(-c2ccc([C@@H](Oc3cc(N4CCC5(CC4)CN[C@H](C(=O)O)C5)nc(N)n3)C(F)(F)F)c(-n3ccc(C)n3)c2)cc1 [Example 1y, (S)-8-(6-((R)-1-(4′-(2-acetamidoethyl)-3-(3-methyl-1H-pyrazol-1-yl)-[1,1′-biphenyl]-4-yl)-2,2,2-trifluoroethoxy)-2-aminopyrimidin-4-yl)-2,8-diazaspiro[4.5]decane-3-carboxylic acid] | > 7.30 | ** (** refers to P<0.01) | – |
| Nc1nc(O[C@H](c2ccc(-c3ccc4c(c3)CCNC4=O)cc2)C(F)(F)F)cc(N2CCC3(CC2)CN[C@H](C(=O)O)C3)n1 [Example 55bc, (S)-8-(2-amino-6-((R)-2,2,2-trifluoro-1-(4-(1-oxo-1,2,3,4-tetrahydroisoquinolin-6-yl)phenyl)ethoxy)pyrimidin-4-yl)-2,8-diazaspiro[4.5]decane-3-carboxylic acid] | > 7.30 | ** (** refers to P<0.01) | – |
| Cc1ccn(-c2cc(C(F)(F)F)ccc2[C@@H](Oc2cc(N3CCC4(CC3)CN[C@H](C(=O)O)C4)nc(N)n2)C(F)(F)F)n1 [Example 10g, (S)-8-(2-amino-6-((R)-2,2,2-trifluoro-1-(2-(3-methyl-1H-pyrazol-1-yl)-4-(trifluoromethyl)phenyl)ethoxy)pyrimidin-4-yl)-2,8-diazaspiro[4.5]decane-3-carboxylic acid] | – | ** (** refers to P<0.01) | – |
| Cc1ccn(-c2cc(Cl)ccc2[C@@H](Oc2cc(N3CCC4(CC3)CN[C@H](C(=O)OC(C)(C)C)C4)nc(N)n2)C(F)(F)F)n1 [Example 65a, (S)-Tert-butyl 8-(2-amino-6-((R)-1-(4-chloro-2-(3-methyl-1H-pyrazol-1-yl)phenyl)-2,2,2-trifluoroethoxy)pyrimidin-4-yl)-2,8-diazaspiro[4.5]decane-3-carboxylate] | – | **** (and refers to P<0.0005) | – |
| CCCCCOC(=O)[C@@H]1CC2(CCN(c3cc(O[C@H](c4ccc(Cl)cc4-n4ccc(C)n4)C(F)(F)F)nc(N)n3)CC2)CN1 [Example 64c, (S)-pentyl 8-(2-amino-6-((R)-1-(4-chloro-2-(3-methyl-1H-pyrazol-1-yl)phenyl)-2,2,2-trifluoroethoxy)pyrimidin-4-yl)-2,8-diazaspiro[4.5]decane-3-carboxylate] | – | **** (and refers to P<0.0005) | – |
| CCOC(=O)[C@@H]1CC2(CCN(c3cc(O[C@H](c4ccc(CC)cc4-n4ccc(C)n4)C(F)(F)F)nc(N)n3)CC2)CN1 [Example 63be, (S)-ethyl 8-(2-amino-6-((R)-1-(4-ethyl-2-(3-methyl-1H-pyrazol-1-yl)phenyl)-2,2,2-trifluoroethoxy)pyrimidin-4-yl)-2,8-diazaspiro[4.5]decane-3-carboxylate] | – | *** (*** refers to P<0.005) | – |
| CCOC(=O)c1cccc(-c2ccc([C@@H](Oc3cc(N4CCC5(CC4)CN[C@H](C(=O)O)C5)nc(N)n3)C(F)(F)F)c(-n3ccc(C)n3)c2)c1 [Example 5] | – | ** (** refers to P<0.01) | – |
| CCOC(=O)C1CC2(CCN(c3cc(O[C@H](c4ccc(Cl)cc4-n4ccc(C)n4)C(F)(F)F)nc(N)n3)CC2)CN1 (stereo partly drawn) [Example 63ay, ethyl 8-(2-amino-6-((R)-1-(4-chloro-2-(3-methyl-1H-pyrazol-1-yl)phenyl)-2,2,2-trifluoroethoxy)pyrimidin-4-yl)-2,8-diazaspiro[4.5]decane-3-carboxylate] | – | *** (*** refers to P<0.005) | – |
| CCOC(=O)[C@@H]1CC2(CCN(c3cc(O[C@H](c4ccc(-c5cccc(OC)c5)cc4)C(F)(F)F)nc(N)n3)CC2)CN1 [Example 63ba, (S)-ethyl 8-(2-amino-6-((R)-2,2,2-trifluoro-1-(3′-methoxy-[1,1′-biphenyl]-4-yl)ethoxy)pyrimidin-4-yl)-2,8-diazaspiro[4.5]decane-3-carboxylate] | – | *** (*** refers to P<0.005) | – |
| Cc1ccn(-c2cc(-c3cccnc3)ccc2[C@@H](Oc2cc(N3CCC4(CC3)CN[C@H](C(=O)O)C4)nc(C)n2)C(F)(F)F)n1 [Example 29z, (S)-8-(2-methyl-6-((R)-2,2,2-trifluoro-1-(2-(3-methyl-1H-pyrazol-1-yl)-4-(pyridin-3-yl)phenyl)ethoxy)pyrimidin-4-yl)-2,8-diazaspiro[4.5]decane-3-carboxylic acid] | – | ** (** refers to P<0.01) | – |
